Results: article PMC10223992, “In Silico-Motivated Discovery of Novel Potent Glycogen Synthase-3 Inhibitors: 1-(Alkyl/arylamino)-3H-naphtho[1,2,3-de]quinoline-2,7-dione Identified as a Scaffold for Kinase Inhibitor Development” (Pharmaceuticals, 2023)
Values joined by “and” are separate entries in the source; they are usually repeats but may differ in a detail not shown here. Equal entries are not always repeated.

System: GSK-3β
Experiment: not given
Parameters: method as in ChEMBL database [53]
Details: Table S1, ChEMBL data; ref ChEMBL database [53]; read-out: IC50 (GSK-3β, known actives); cited from earlier work

Compound | IC50
COc1ccc(-c2cc3c(NC(=O)CC4CCCC4)ncnc3o2)cc1 [CHEMBL182891] | 320 nM
C[C@@H]1C[C@H]2CN1CCn1nc3c(cccc3c1O)-c1nc3c(cccc3nc1O)O2 [CHEMBL215803] | 13 nM
COc1cccc(-n2ncc3c(N/N=C/c4ccc(OCCN(C)C)cc4)ncnc32)c1 [CHEMBL303321] | 6.31 nM
O=C(CCl)c1scc(Br)c1Br [CHEMBL357136] | 500 nM
COc1ccc(-c2oc3ncnc(N)c3c2-c2cccnc2)cc1 [CHEMBL361567] | 80 nM
Clc1ccccc1-c1cc(NCOc2cccnc2)n2ncc(Br)c2n1 [CHEMBL398621] | 35 nM
COc1cccc(Nc2nccc(C3=C(c4ccccc4)NN4C=CC=CC34)n2)c1 (centres unmarked) [CHEMBL403405] | 30 nM
O=C(NC1CCNCC1)c1n[nH]cc1NC(=O)c1c(Cl)cccc1Cl [CHEMBL445813] | 200 nM
O=c1[nH]cnc2[nH]c(-c3ccnc(/C=C/c4ccc(CN5CCOCC5)cc4)c3)cc12 [CHEMBL461139] | 300 nM
COc1ccc(-n2cnc3ccc(-c4nnc(SCc5cccc(C(F)(F)F)c5)o4)cc32)cc1 [CHEMBL513570] | 2.5 nM
COc1cc(C2=C(c3cn(CCN4CCN(C)CC4)c4ccccc34)C(=O)NC2=O)c2occc2c1 [CHEMBL564450] | 0.14 nM
Cc1[nH]c2ccccc2c1C1=C(NCCc2ccc(F)cc2)C(=O)N(C)C1=O [CHEMBL1254896] | 53 nM
Oc1ccc(Nc2ncnc3[nH]cnc23)cc1CN(CCCl)CCCl [CHEMBL1630434] | 10.8 nM
COc1ccc(-c2cc(-c3ccc(F)cc3)[nH]c(=O)c2O)cc1 [CHEMBL1630451] | 325 nM
COc1ccc(Nc2nnc(-c3ccc(C(F)(F)F)cc3)o2)cc1 [CHEMBL1630483] | 53 nM
Nc1c(Br)cc(C(=O)C(Br)Br)cc1Br [CHEMBL1801628] | 500 nM
O=C1Nc2ccccc2/C1=C1/Nc2cc(Br)ccc2C1=O [CHEMBL1830063] | 4 nM

Compound | IC50
Cc1ccccc1-n1cc(-c2ccccn2)nn1 [CHEMBL1938959] | 490 nM
COc1ccc(-c2ocnc2C(=O)NCc2ccn3ccnc3c2)cc1Cl [CHEMBL1957231] | 5.01 nM
N#Cc1ccc2[nH]c(O)c(-c3ccc(CN4CCOCC4)cn3)c2c1 [CHEMBL1969664] | 31 nM
OCC/N=c1\nc(-c2ccccc2)n(-c2cccc3ccccc23)s1 [CHEMBL2022413] | 300 nM
CCOC(=O)C/N=c1\nc(-c2ccc(OC)cc2)n(-c2ccccc2)s1 [CHEMBL2024372] | 500 nM
O=C(NCCc1cccnc1Cl)c1ccnc2[nH]c(-c3ccoc3)nc12 [CHEMBL2048673] | 9 nM
O=C1Nc2ccccc2/C1=C/c1ccccn1 [CHEMBL2094331] | 4.19 nM
Cc1ccc(-c2c[nH]c(C3COCCN3Cc3c[nH]c4ccccc34)n2)cc1 (centres unmarked) [CHEMBL2297166] | 120 nM
Fc1cnc2[nH]nc(Nc3cc(C(F)(F)F)cc(-c4ccccc4Cl)n3)c2c1 [CHEMBL3661029] | 50 nM
COc1ccncc1-c1ccc2[nH]nc(C(=O)NCC3CCN(CCc4ccccc4)CC3)c2c1 [CHEMBL3735603] | 20 nM
COc1ccc2c(c1C(C)N1CCNCC1)O/C(=C\c1n[nH]c3ncccc13)C2=O (centres unmarked) [CHEMBL3735890] | 6.1 nM
O=C(/C=C/c1cnc2[nH]cc(-c3ccccc3)c2c1)NCCN1CCOCC1 [CHEMBL3891139] | 46 nM
COc1cc(F)cc(F)c1C1CN(c2nc(-c3ccncn3)cc(=O)n2C)CCN1 (centres unmarked) [CHEMBL4071429] | 1.7 nM
O=C1Cc2cc(Br)ccc2/C1=c1/[nH]c2ccccc2/c1=C\O [CHEMBL4077172] | 5 nM
O=CN1Cc2cccc3c(C4=C(c5cnc6ccccn56)C(=O)NC4=O)cn(c23)CC1N1CCOCC1 (centres unmarked) [CHEMBL4162850] | 1.3 nM
C=CCOC(=O)c1cc(-c2ccc(/C=C3/NC(=S)NC3=O)o2)ccc1Cl [CHEMBL4568120] | 218 nM
Cc1ccc(-n2cc(CSC3=NC(c4ccccc4)CC(=O)N3C)nn2)cc1C (centres unmarked) [CHEMBL4635819] | 82 nM
CCc1ccc(-n2cc(CSc3nnc(Cn4c(C(F)(F)F)nc5ccccc54)o3)nn2)cc1 [CHEMBL4643895] | 390 nM

Same assay, conditions: read-out: IC50 (GSK-3β, known actives); cited from earlier work

Compound | IC50
CN(C)C[C@@H](OC(=O)N1Cc2c(NC(=O)C(C)(C)C)n[nH]c2C1(C)C)c1ccccc1 [CHEMBL2064628] | 227 nM
Cc1nn(-c2ccc(Cl)cc2Cl)c2c1c1c(c3cccn32)C(=O)NC1=O [CHEMBL3110144] | 240 nM

Biological target: PKBβ (Homo sapiens, UniProt P31751)
Sequence (P31751 whole entry, species assumed): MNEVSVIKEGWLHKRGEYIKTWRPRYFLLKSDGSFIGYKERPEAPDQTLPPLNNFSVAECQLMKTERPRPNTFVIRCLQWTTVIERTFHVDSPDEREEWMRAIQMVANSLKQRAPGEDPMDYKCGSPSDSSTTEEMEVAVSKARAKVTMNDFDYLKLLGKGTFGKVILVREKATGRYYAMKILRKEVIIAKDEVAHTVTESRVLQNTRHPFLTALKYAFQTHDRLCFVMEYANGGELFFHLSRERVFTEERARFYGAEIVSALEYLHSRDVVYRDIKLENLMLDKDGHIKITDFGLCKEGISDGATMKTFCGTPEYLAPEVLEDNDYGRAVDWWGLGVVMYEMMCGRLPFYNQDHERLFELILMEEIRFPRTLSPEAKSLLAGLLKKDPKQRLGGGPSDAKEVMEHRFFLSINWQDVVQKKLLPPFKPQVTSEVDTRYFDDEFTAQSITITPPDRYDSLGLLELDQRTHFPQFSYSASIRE
Experiment: kinase selectivity screening, PKBβ
Type: biochemical
Details: not given
Experimental: (§1) All predicted inhibitors for testing (except compound 3) were purchased from Vitas-M Laboratory, with purity ≥ 90%. Compound 3 was purchased from Biosynth Carbosynth with purity of 95%. Binding assay experiments against Homo sapiens GSK-3β were performed using a specialist service from the MRC Protein Phosphorylation & Ubiquitylation Unit at the University of Dundee (http://www.kinase-screen.mrc.ac.uk/ (accessed on 1 April 2023)). Initial assays underwent single concentration screening at 50 µM concentrations to determine those compounds showing the best inhibitory potential. Inhibitory activities were calculated based on maximal activities measured in the absence of an inhibitor. […] In the kinase selectivity panel screening for 14 and 19, the compounds were assayed at single concentration (50 μM) against CDK2, CDK5, CDK9, ERK1, ERK2, PKA, PKBβ, PKCα, PKCγ, GSK-3α, and GSK-3β. All binding assay experiments were performed in duplicate.

Compound | IC50
Cc1cc(C)cc(Nc2c3c4c(cccc4[nH]c2=O)C(=O)c2ccccc2-3)c1 [Compound 14] | 14900 ± 1500 nM
CCCCNc1c2c3c(cccc3[nH]c1=O)C(=O)c1ccccc1-2 [Compound 19] | 24600 ± 200 nM

Biological target: GSK-3α (Homo sapiens, UniProt P49840)
Sequence (P49840 whole entry, species assumed): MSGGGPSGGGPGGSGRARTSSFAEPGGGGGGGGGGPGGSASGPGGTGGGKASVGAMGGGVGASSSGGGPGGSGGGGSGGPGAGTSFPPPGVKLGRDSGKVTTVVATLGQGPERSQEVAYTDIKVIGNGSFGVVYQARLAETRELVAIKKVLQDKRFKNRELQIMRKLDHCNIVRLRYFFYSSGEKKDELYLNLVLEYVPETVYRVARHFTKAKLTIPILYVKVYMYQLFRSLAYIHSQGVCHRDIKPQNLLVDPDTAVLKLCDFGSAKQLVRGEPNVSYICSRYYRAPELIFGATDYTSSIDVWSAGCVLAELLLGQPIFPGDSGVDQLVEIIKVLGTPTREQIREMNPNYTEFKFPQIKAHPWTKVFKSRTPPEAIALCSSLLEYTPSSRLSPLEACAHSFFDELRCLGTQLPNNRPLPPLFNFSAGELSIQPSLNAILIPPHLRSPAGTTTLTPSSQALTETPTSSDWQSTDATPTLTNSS
Experiment: kinase selectivity screening, GSK-3α
Type: biochemical
Details: not given
Experimental: as §1

Compound | IC50
Cc1cc(C)cc(Nc2c3c4c(cccc4[nH]c2=O)C(=O)c2ccccc2-3)c1 [Compound 14] | 2300 ± 400 nM
CCCCNc1c2c3c(cccc3[nH]c1=O)C(=O)c1ccccc1-2 [Compound 19] | 1700 ± 100 nM

Same assay, conditions: single-dose profiling 50 μM

Compound | % remaining activity (GSK-3α)
Cc1cc(C)cc(Nc2c3c4c(cccc4[nH]c2=O)C(=O)c2ccccc2-3)c1 [Compound 14] | < 50%
CCCCNc1c2c3c(cccc3[nH]c1=O)C(=O)c1ccccc1-2 [Compound 19] | < 50%

Biological target: ERK2 (Homo sapiens, UniProt P28482)
Sequence (P28482 whole entry, species assumed): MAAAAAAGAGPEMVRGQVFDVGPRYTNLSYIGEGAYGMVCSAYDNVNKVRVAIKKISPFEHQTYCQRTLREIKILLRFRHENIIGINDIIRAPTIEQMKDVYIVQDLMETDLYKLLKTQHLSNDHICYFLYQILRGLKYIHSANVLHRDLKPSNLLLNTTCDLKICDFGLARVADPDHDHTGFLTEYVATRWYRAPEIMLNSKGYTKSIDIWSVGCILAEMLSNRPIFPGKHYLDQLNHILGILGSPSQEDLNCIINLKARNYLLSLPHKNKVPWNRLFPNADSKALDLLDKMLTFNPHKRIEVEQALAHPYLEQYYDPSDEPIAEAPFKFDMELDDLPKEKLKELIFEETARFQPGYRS
Experiment: kinase selectivity screening, ERK2
Type: biochemical
Details: not given
Experimental: as §1

Compound | IC50
Cc1cc(C)cc(Nc2c3c4c(cccc4[nH]c2=O)C(=O)c2ccccc2-3)c1 [Compound 14] | 21300 nM

Biological target: T1, Homo sapiens GSK-3β (Homo sapiens, UniProt P49841)
T1 construct: purchased MRC Protein Phosphorylation & Ubiquitylation Unit, University of Dundee (screening service)
T1 sequence (P49841 whole entry): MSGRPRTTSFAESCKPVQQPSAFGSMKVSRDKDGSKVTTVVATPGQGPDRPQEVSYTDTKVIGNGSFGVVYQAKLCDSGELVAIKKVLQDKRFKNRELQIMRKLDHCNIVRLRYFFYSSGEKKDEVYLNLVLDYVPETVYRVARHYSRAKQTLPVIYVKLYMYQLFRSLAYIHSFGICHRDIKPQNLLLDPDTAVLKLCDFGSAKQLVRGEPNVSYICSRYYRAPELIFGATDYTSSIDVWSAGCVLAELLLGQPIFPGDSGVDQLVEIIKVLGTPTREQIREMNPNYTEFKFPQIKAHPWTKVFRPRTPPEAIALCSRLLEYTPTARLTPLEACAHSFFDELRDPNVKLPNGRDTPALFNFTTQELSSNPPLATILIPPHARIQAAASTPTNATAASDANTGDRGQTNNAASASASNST
Experiment: in vitro GSK-3β binding assay (kinase inhibition, MRC PPU Dundee)
Type: biochemical
Details: in vitro binding assay, duplicate
Experimental: as §1

Compound | IC50
Nc1ccc2ncnc3c2c1C(=O)c1ccccc1-3 [Compound 1, 6-amino-7H-benzo[e]perimidin-7-one] | 1630 ± 300 nM
O=C1c2ccccc2-c2c(Nc3ccccc3)c(O)nc3cccc1c23 [Compound 2, 1-(phenylamino)-3H-naphtho[1,2,3-de]quinoline-2,7-dione] | 20600 ± 3800 nM
COc1cccc2c1cc1c3c(cc4c(c32)OCO4)C(=O)N1 [Compound 3, 8-methoxy-[1,3]dioxolo[4′,5′:4,5]benzo[1,2,3-cd]benzo[f]indol-5(6H)-one] | 63700 ± 3300 nM
COc1ccc([C@@H]2CC(=O)Nc3cccc4c3c2cn4Cc2ccccc2)c(OC)c1 [Compound 4, (R)-1-benzyl-3-(2,4-dimethoxyphenyl)-1,3,4,6-tetrahydro-5H-azepino[4,3,2-cd]indol-5-one] | 87500 ± 9170 nM
Cc1ccc(Nc2c3c4c(cccc4[nH]c2=O)C(=O)c2ccccc2-3)cc1 [Compound 13] | < 10000 nM and 9400 nM
Cc1cc(C)cc(Nc2c3c4c(cccc4[nH]c2=O)C(=O)c2ccccc2-3)c1 [Compound 14] | < 10000 nM and 9100 nM
COc1ccc(Nc2c3c4c(cccc4[nH]c2=O)C(=O)c2ccccc2-3)cc1 [Compound 15] | 11400 ± 600 nM
COc1ccccc1Nc1c2c3c(cccc3n(C)c1=O)C(=O)c1ccccc1-2 [Compound 16] | 27100 ± 1100 nM
COc1ccc(Nc2c3c4c(c(Br)ccc4n(C)c2=O)C(=O)c2ccccc2-3)cc1 [Compound 17] | 14000 ± 3100 nM
O=C1c2ccccc2-c2c(NC3CCCCC3)c(=O)[nH]c3cccc1c23 [Compound 18] | 25300 ± 3500 nM
CCCCNc1c2c3c(cccc3[nH]c1=O)C(=O)c1ccccc1-2 [Compound 19] | < 10000 nM and 4900 nM
COCCCNc1c(O)nc2cccc3c2c1-c1ccccc1C3=O [Compound 20] | < 10000 nM and 9100 nM
Cn1c(=O)c(NCCO)c2c3c(cccc31)C(=O)c1ccccc1-2 [Compound 21] | 17000 ± 2700 nM
Nc1c2c3c(cccc3[nH]c1=O)C(=O)c1ccccc1-2 [Compound 22] | 36700 ± 5700 nM

Same assay, conditions: single concentration 50 µM

Compound | inhibition at 50 µM
O=C1Nc2ccccc2C(=O)N2c3ccccc3C[C@@H]12 [Compound 5, (S)-12a,13-dihydro-6H-benzo[5,6][1,4]diazepino[1,2-a]indole-6,12(11H)-dione] | 20%
CN(C)CCn1cnc2c1c(=O)[nH]c(=O)n2Cc1ccccc1 [Compound 6, 3-benzyl-7-(2-(dimethylamino)ethyl)-3,7-dihydro-1H-purine-2,6-dione] | 11%
Cc1coc2cc3oc(=O)c(CC(=O)N[C@H]4CCCc5c4[nH]c4ccccc54)c(C)c3cc12 [Compound 7, (S)-2-(3,5-dimethyl-7-oxo-7H-furo[3,2-g]chromen-6-yl)-N-(2,3,4,9-tetrahydro-1H-carbazol-1-yl)acetamide] | 10%
O=C1N/C(=C/c2ccccc2)C(=O)N2Cc3ccccc3C[C@@H]12 [Compound 8, (S,E)-3-benzylidene-2,3,11,11a-tetrahydro-4H-pyrazino[1,2-b]isoquinoline-1,4(6H)-dione] | 10%
COc1ccc(Cn2cnc3c([nH]c4ccccc43)c2=O)cc1OC [Compound 9, 3-(3,4-dimethoxybenzyl)-3,5-dihydro-4H-pyrimido[5,4-b]indol-4-one] | 9%
Cc1ccc2c(c1)[C@]1(N[C@@H]([C@@H](C)O)[C@H]3C(=O)N(Cc4ccc5c(c4)OCO5)C(=O)[C@H]31)C(=O)N2 [Compound 10, (3S,3′R,3a′S,6a′R)-5′-(benzo[d][1,3]dioxol-5-ylmethyl)-3′-((R)-1-hydroxyethyl)-5-methyl-2′,3′,3a′,6a′-tetrahydro-4′H-spiro[indoline-3,1′-pyrrolo[3,4-c]pyrrole]-2,4′,6′(5′H)-trione] | 6%
COc1cc2c(cc1OC)[C@@H](c1c(O)[nH]c(=O)n(-c3ccc(C)c(C)c3)c1=O)NCC2 [Compound 11, (S)-5-(6,7-dimethoxy-1,2,3,4-tetrahydroisoquinolin-1-yl)-3-(3,4-dimethylphenyl)-6-hydroxypyrimidine-2,4(1H,3H)-dione] | 2%
O=C1Nc2cc(Cl)ccc2/C1=C/c1cccc2[nH]ccc12 [Compound 12, (Z)-3-((1H-indol-4-yl)methylene)-6-chloroindolin-2-one] | < 0%

Same assay, conditions: single-dose profiling 50 μM

Compound | % remaining activity (GSK-3β)
Cc1cc(C)cc(Nc2c3c4c(cccc4[nH]c2=O)C(=O)c2ccccc2-3)c1 [Compound 14] | < 50%
CCCCNc1c2c3c(cccc3[nH]c1=O)C(=O)c1ccccc1-2 [Compound 19] | < 50%

Biological target: PKCγ (Homo sapiens, UniProt P05129)
Experiment: kinase selectivity screening, PKCγ
Type: biochemical
Details: not given
Experimental: as §1

Compound | IC50
CCCCNc1c2c3c(cccc3[nH]c1=O)C(=O)c1ccccc1-2 [Compound 19] | 11000 ± 1500 nM
